# Test results taken from US20250154141A1 (University of Florida Research Foundation, Incorporated, priority 2021, published 2025).
# Like-named read-outs stand apart in the source and are kept apart here.
# Experiments:
# Format in all cases: cell-based
# [1] = system: MOLT-4; assay: Cell viability assay (MTS) in MOLT-4 cells
# Protocol: (§1) Acute lymphoblastic leukemia cells (MOLT-4 and RS4; 11) were incubated with increasing concentrations of Bcl-xL degraders for 48 h. Cell viability was measured by tetrazolium-based MTS assay.
# [2] = biological target: T1, Bcl-2 (Homo sapiens, UniProt P10415); assay: Protein degradation assay in Jurkat cells (Western blot), Bcl-2; set-up: endogenous in cells; host or cells: Jurkat cells; settings: for degradation of BCL-2 by Western blotting analysis: FIG. 1, 16 hours
# T1 sequence (P10415 whole entry): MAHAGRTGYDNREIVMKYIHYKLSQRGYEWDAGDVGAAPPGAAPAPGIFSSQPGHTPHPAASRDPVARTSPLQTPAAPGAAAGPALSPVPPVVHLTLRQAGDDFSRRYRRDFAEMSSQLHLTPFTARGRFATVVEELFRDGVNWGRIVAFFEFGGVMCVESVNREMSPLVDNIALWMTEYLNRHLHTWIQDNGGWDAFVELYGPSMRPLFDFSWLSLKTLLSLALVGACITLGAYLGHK
# Protocol: (§2) Jurkat cells and human platelets were incubated with increasing concentrations of test compounds for 16 h. The cells were harvested and lysed in RIPA lysis buffer supplemented with protease and phosphatase inhibitor cocktails. An equal amount of protein ([…]) was resolved on a pre-cast 4-20% SDS-PAGE gel. Proteins were subsequently transferred to NOVEX PVDF membranes by electrophoresis. The membranes were blocked in blocking buffer (5% non-fat dry milk in TBS-T), and incubated with primary antibodies (at optimized concentrations) overnight at 4° C. After three washings in TBS-T, the membranes were incubated with an appropriate FIRP-conjugated secondary antibody for 1 h at room temperature. After extensive washing for three times, the proteins of interest was detected with ECL western blotting detection reagents and recorded with autoradiography (Pierce Biotech, Rockford, IL, USA). The primary antibodies for Bcl-xL (Cat #2762), Bcl-2 (Cat #2872), Mcl-1 (Cat #5453) and j-actin (Cat #4970) were purchased from Cell Signaling Technology. The relative band intensity was measured using ImageJ software and normalized to β-actin.
# [3] = system: RS4; 11; assay: Cell viability assay (MTS) in RS4; 11 cells
# Protocol: as §1
# [4] = biological target: T2, Bcl-xL (Homo sapiens, UniProt Q07817); assay: Protein degradation assay in Jurkat cells (Western blot), Bcl-xL; set-up: endogenous in cells; host or cells: Jurkat cells; settings: for degradation of BCL-XL by Western blotting analysis: FIG. 1, 16 hours
# T2 sequence (Q07817 whole entry): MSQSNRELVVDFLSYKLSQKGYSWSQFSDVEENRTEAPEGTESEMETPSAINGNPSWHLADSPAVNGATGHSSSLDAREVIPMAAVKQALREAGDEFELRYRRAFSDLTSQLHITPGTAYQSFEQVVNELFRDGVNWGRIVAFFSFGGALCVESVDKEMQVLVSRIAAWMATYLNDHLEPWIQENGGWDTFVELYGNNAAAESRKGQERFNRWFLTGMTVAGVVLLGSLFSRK
# Protocol: as §2
# [5] = system: human platelets; assay: Platelet toxicity assay (MTS viability); settings: for IC50: 48 h, human platelets; for Platelets/MOLT-4 IC50 Fold change / PLT/MOLT-4 IC50 Fold Change: ratio of platelet IC50 to MOLT-4 IC50
# Protocol: Platelet-rich plasma (PRP) was purchased from Life South Community Blood Centers (Gainesville, FL, USA). PRP was transferred into a 50 mL tube containing 5 mL of the acid citrate buffer (Cat. No. sc-214744, Santa Cruz Biotechnology). To prevent clotting, prostaglandin E1 (PGE1, Cat. No. sc-201223A, Santa Cruz Biotechnology, Dallas, TX, USA) and apyrase (Cat. No. A6237, Sigma-Aldrich, St. Louis, MO, USA) were added to final concentrations of […] and 0.2 U/mL, respectively. After gently mixing the solution, platelets were pelleted by centrifugation at 1200 g for 10 min without break. Pelleted platelets were gently washed without disturbing platelets using 2 mL of HEPES Tyrode's buffer (Cat. No. PY-921WB, Boston BioProducts, Ashland, MA, USA) containing […] PGE1 and 0.2 U/mL apyrase. After washing, pellets were gently suspended in 10 mL of HEPES Tyrode's buffer containing […] PGE1 and 0.2 U/mL apyrase. Then, the platelet number was counted using a HEMAVET 950FS hematology analyzer (Drew Scientific, Inc., Oxford, CT, USA). For viability assays, the platelet number was adjusted to 2×10^8/mL in HEPES Tyrode's buffer containing […] PGE1 and 0.2 U/mL apyrase. Each treatment was given in 2 mL of the platelet suspension in 15 mL polypropylene tubes. The tubes were placed on a rotating platform at room temperature, and the viability of platelets was measured after 48 h treatment by using the MTS reagent (Cat. No. G1111, Promega, Madison, WI, USA). The data were analyzed by the GraphPad Prism 7 software for the calculation of IC50 values.
# [6] = biological target: T2, Bcl-xL; assay: Protein degradation assay in human platelets (Western blot), Bcl-xL; set-up: endogenous in cells; host or cells: human platelets; settings: FIG. 4, 16 h
# Protocol: as §2
# [7] = biological target: T1, Bcl-2; assay: Protein degradation assay in human platelets (Western blot), Bcl-2; set-up: endogenous in cells; host or cells: human platelets; settings: FIG. 4, 16 h
# Protocol: as §2
# [8] = Homo sapiens, MOLT-4, Table 2, 48 hr, MTS, read-out: Anti-Cancer Activity IC50 (48 hr) MOLT-4
# [9] = Homo sapiens, RS4-11, Table 2, 48 hr, MTS, read-out: Anti-Cancer Activity IC50 (48 hr) RS4, 11
# [10] = Homo sapiens, MOLT-4, 48 h, read-out: Anti-Cancer Activity IC50 (48 hr) MOLT-4
# [11] = Homo sapiens, RS4-11, 48 h, read-out: Anti-Cancer Activity IC50 (48 hr) RS4, 11
# [12] = Homo sapiens, MOLT-4, Table 6, 48 h, read-out: MOLT-4 48 h IC50
# [13] = Homo sapiens, RS4-11, Table 6, 48 h, read-out: RS4 48 h IC50
# [14] = Homo sapiens, Platelet, Table 6, 4 th time, read-out: Platelets 4 th time 48 h IC50
# [15] = Homo sapiens, MOLT-4, 48 h, read-out: MOLT-4 48 h IC50
# [16] = FIGS. 2-3, increasing concentrations 16 hours, 100 nM for various durations
# [17] = FIGS. 2C, 3C, 16 h treatment, wash-off, cultured without compound 0 to 48
# [18] = Homo sapiens, RS4-11, 48 h, read-out: RS4 48 h IC50
# [19] = Homo sapiens, MOLT-4, Table 4, 48 h, read-out: MOLT-4 48 h IC50
# [20] = Homo sapiens, RS4-11, Table 4, 48 h, read-out: RS4 48 h IC50
# [21] = Homo sapiens, Platelet, Table 4, read-out: Platelets 48 h IC50
structure (smiles),measurement,setting,value
Cc1ncsc1-c1ccc([C@H](C)NC(=O)[C@@H]2C[C@@H](O)CN2C(=O)[C@@H](NC(=O)CN2CCC(CC(=O)N3CCN(CC4(C)CCC(c5ccc(Cl)cc5)=C(CN5CCN(c6ccc(C(=O)NS(=O)(=O)c7ccc(N[C@H](CCN8CCOCC8)CSc8ccccc8)c(S(=O)(=O)C(F)(F)F)c7)cc6)CC5)C4)CC3)CC2)C(C)(C)C)cc1 (stereo partly drawn) [Compound 26],IC50,[1]; [8],< 20 nM
same,degradation of BCL-2 by Western blotting analysis,[2],exemplary degradation
same,IC50,[3]; [9],20 to 100 nM
same,degradation of BCL-XL by Western blotting analysis,[4],exemplary degradation
Cc1ncsc1-c1ccc([C@H](C)NC(=O)[C@@H]2C[C@@H](O)CN2C(=O)[C@@H](NC(=O)CN2[C@@H]3CC[C@H]2CN(CC(=O)N2CCN(CC4(C)CCC(c5ccc(Cl)cc5)=C(CN5CCN(c6ccc(C(=O)NS(=O)(=O)c7ccc(N[C@H](CCN8CCOCC8)CSc8ccccc8)c(S(=O)(=O)C(F)(F)F)c7)cc6)CC5)C4)CC2)C3)C(C)(C)C)cc1 (stereo partly drawn) [Compound 32],IC50,[1]; [10],< 20 nM
same,degradation of BCL-2 by Western blotting analysis,[2],exemplary degradation
same,IC50,[3]; [11],< 20 nM
same,degradation of BCL-XL by Western blotting analysis,[4],exemplary degradation
Cc1ncsc1-c1ccc([C@H](C)NC(=O)[C@@H]2C[C@@H](O)CN2C(=O)[C@@H](NC(=O)CCCCCCC(=O)N2CCN(CC3(C)CCC(c4ccc(Cl)cc4)=C(CN4CCN(c5ccc(C(=O)NS(=O)(=O)c6ccc(N[C@H](CCN7C[C@H]8C[C@@H]7CO8)CSc7ccccc7)c(S(=O)(=O)C(F)(F)F)c6)cc5)CC4)C3)CC2)C(C)(C)C)cc1 (stereo partly drawn) [Compound 65],IC50,[1]; [8],< 20 nM
same,IC50,[1]; [12],2.8 nM
same,degradation of BCL-2 by Western blotting analysis,[2],exemplary degradation
same,IC50,[3]; [9],< 20 nM
same,IC50,[3]; [13],4.2 nM
same,IC50,[5]; [14],1600 nM
same,Platelets/MOLT-4 IC50 Fold change,[5]; Table 6,711
same,degradation of BCL-XL by Western blotting analysis,[4],exemplary degradation
Cc1ncsc1-c1ccc([C@H](C)NC(=O)[C@@H]2C[C@@H](O)CN2C(=O)[C@@H](NC(=O)CN2CCN(CC(=O)N3CCN(CC4(C)CCC(c5ccc(Cl)cc5)=C(CN5CCN(c6ccc(C(=O)NS(=O)(=O)c7ccc(N[C@H](CCN8C[C@H]9C[C@@H]8CO9)CSc8ccccc8)c(S(=O)(=O)C(F)(F)F)c7)cc6)CC5)C4)CC3)CC2)C(C)(C)C)cc1 (stereo partly drawn) [Compound 68],IC50,[1]; [10],< 20 nM
same,IC50,[1]; [15],3.2 nM
same,Bcl-xL expression levels in human platelets,[6],do not affect
same,Bcl-2 expression levels in human platelets,[7],do not affect
same,degradation of BCL-2 by Western blotting analysis,[2],exemplary degradation
same,degradation of Bcl-2 (immunoblot),[2]; [16],dose- and time-dependently degraded
same,duration of Bcl-2 degradation after wash-off,[2]; [17],long-lasting
same,IC50,[3]; [11],< 20 nM
same,IC50,[3]; [18],5 nM
same,IC50,"[5]; Platelet, Table 3, mean of two independent experiments in triplicates, read-out: Platelets 48 h IC50",777 nM
same,IC50,"[5]; Platelet, Table 6, 4 th time, read-out: Platelets 4 th time 48 h IC50",777 nM
same,Platelets/MOLT-4 IC50 Fold change,[5]; Table 3,240
same,Platelets/MOLT-4 IC50 Fold change,[5]; Table 6,240
same,degradation of BCL-XL by Western blotting analysis,[4],exemplary degradation
same,degradation of Bcl-xL (immunoblot),[4]; [16],dose- and time-dependently degraded
same,duration of Bcl-xL degradation after wash-off,[4]; [17],long-lasting
Cc1ncsc1-c1ccc([C@H](C)NC(=O)[C@@H]2C[C@@H](O)CN2C(=O)[C@@H](NC(=O)CN2CCN(CC(=O)N3CCN(C[C@]4(C)CCC(c5ccc(Cl)cc5)=C(CN5CCN(c6ccc(C(=O)NS(=O)(=O)c7ccc(N[C@H](CCN8C[C@H]9C[C@@H]8CO9)CSc8ccccc8)c(S(=O)(=O)C(F)(F)F)c7)cc6)CC5)C4)CC3)CC2)C(C)(C)C)cc1 [Compound 105],IC50,[1]; [10],< 20 nM
same,IC50,[1]; [15],4 nM
same,IC50,[3]; [11],< 20 nM
same,IC50,[3]; [18],3 nM
same,IC50,"[5]; Platelet, Table 4, read-out: Platelets 48 h IC50",777 nM
"Cc1ncsc1-c1ccc([C@H](C)NC(=O)[C@@H]2C[C@@H](O)CN2C(=O)[C@@H](NC(=O)CCCCCC(=O)N2CCN(CC[C@H](CSc3ccccc3)Nc3ccc(S(=O)(=O)NC(=O)c4ccc(N5CCN(CC6=C(c7ccc(Cl)cc7)CCC(C)(C)C6)CC5)cc4)cc3S(=O)(=O)C(F)(F)F)CC2)C(C)(C)C)cc1 [DT2216, reference compound]",IC50,"[1]; Table 4, 48 h, read-out: MOLT-4 48 h IC50",50 to 80 nM
same,IC50,"[3]; Table 4, 48 h, read-out: RS4 48 h IC50",180 to 230 nM
same,IC50,"[5]; Table 4, read-out: Platelets 48 h IC50",> 10000 nM
same,PLT/MOLT-4 IC50 Fold Change,[5]; Table 4,>150
Cc1ncsc1-c1ccc([C@H](C)NC(=O)[C@@H]2C[C@@H](O)CN2C(=O)[C@@H](NC(=O)CCCCCCC(=O)N2CCN(CC3(C)CCC(c4ccc(Cl)cc4)=C(CN4CCN(c5ccc(C(=O)NS(=O)(=O)c6ccc(N[C@H](CCN7CCOCC7)CSc7ccccc7)c(S(=O)(=O)C(F)(F)F)c6)cc5)CC4)C3)CC2)C(C)(C)C)cc1 (stereo partly drawn) [PP18319C8],IC50,[1]; [19],17.4 nM
same,IC50,[3]; [20],18.7 nM
same,IC50,[5]; [21],1640 nM
same,PLT/MOLT-4 IC50 Fold Change,[5]; Table 4,94
"Cc1ncsc1-c1ccc([C@H](C)NC(=O)[C@@H]2C[C@@H](O)CN2C(=O)[C@@H](NC(=O)CCCCCCC(=O)N2CCN(C[C@]3(C)CCC(c4ccc(Cl)cc4)=C(CN4CCN(c5ccc(C(=O)NS(=O)(=O)c6ccc(N[C@H](CCN7CCOCC7)CSc7ccccc7)c(S(=O)(=O)C(F)(F)F)c6)cc5)CC4)C3)CC2)C(C)(C)C)cc1 [PZ753B, reference compound]",IC50,[1]; [19],6.9 nM
same,IC50,[3]; [20],5.8 nM
same,IC50,[5]; [21],1050 nM
same,PLT/MOLT-4 IC50 Fold Change,[5]; Table 4,152
Cc1ncsc1-c1ccc([C@H](C)NC(=O)[C@@H]2C[C@@H](O)CN2C(=O)[C@@H](NC(=O)CCCCCCC(=O)N2CCN(CC3(C)CCC(c4ccc(Cl)cc4)=C(CN4CCN(c5ccc(C(=O)NS(=O)(=O)c6ccc(N[C@H](CCN7C[C@@H]8C[C@H]7CO8)CSc7ccccc7)c(S(=O)(=O)C(F)(F)F)c6)cc5)CC4)C3)CC2)C(C)(C)C)cc1 (stereo partly drawn) [compound 64],IC50,[1]; [8],< 20 nM
same,IC50,[1]; [12],2.9 nM
same,IC50,[3]; [9],< 20 nM
same,IC50,[3]; [13],4.7 nM
same,IC50,[5]; [14],884 nM
